Entries after “also recorded” stand apart in the source; their conditions may differ. Ends that are not written are not given here.
Key:
[1] = test system: orthotopic MDA-MB-435 xenograft tumors; experiment: Tumor homing of i.v. injected fluorescein-conjugated peptides, MDA-MB-435 xenografts; format: in vivo, mouse
Description: To determine whether the CLT peptides would recognize clotted plasma proteins in vivo, the peptides were synthesized as fluorescein conjugates and imaged their accumulation in tumors. Mice bearing orthotopic MDA-MB-435 xenograft tumors were intravenously injected with fluorescein-conjugated CLT1 (n=6), CLT2 (n=4), or a control peptide (n=4) with the sequence KAREC (SEQ ID NO: 5).
B16F1 mouse melanoma, Lewis lung carcinoma, C8161 human melanoma, MDA-MB-435 human breast cancer, and PPC-1 human prostate cancer cells (American Type Culture Collection) were maintained in RPMI or DMEM supplemented with 10% FCS. Human tumor cells (1×10^6) were injected into the mammary fat pad or the flank of nude BALB/c nu/nu mice to induce tumors. MMTV PyMT mice were provided by Dr. Robert Oshima (Burnham Institute for Medical Research, La Jolla, Calif.). The MMTV PyMT mice develop breast cancer under the influence of a polyoma middle T antigen driven by the mouse tumor virus promoter (Siegel, P. M., Ryan, E. D., Cardiff, R. D., Muller W. J. (1999) EMBO J., 18, 2149-64). B16F1 tumors induced by injecting 1×10^6 cells subcutaneously were grown in the flank of fibrinogen knock-out mice (Suh, T. T., Holmback, K., Jensen, N. J., Daugherty, C. C., Small, K., Simon, D. I., Potter, S., & Degen, J. L. (1995) Genes Dev. 9, 2020-2033), and of transgenic plasma fibronectin-deficient C57BL/6-Fn(f1/f1) Mx-Cre^+ (Sakai, T., Johnson, K. J., Murozono, M., Sakai, K., Magnuson, M. A., Wieloch, T., Cronberg, T., Isshiki, A., Erickson, H. P., & Fassler R. (2001) Nat. Med. 7, 324-30) and their wild type littermates. Deletion of the fibronectin gene in the liver was induced by poly(I):poly(C) (Yi, M., Sakai, T., Fassler, R., & Ruoslahti, E. (2003) Proc. Natl. Acad. Sci. USA. 100, 11435-11438). Frozen human tissues from clinical breast cancers were provided by the Western Division of the NCI Cooperative Human Tissue Network (Vanderbilt University Medical Center, Nashville, Tenn.).
Peptides were synthesized and conjugated to fluorescein isothiocyanate as described (Laakonen et al. PNAS 2004), and cyclized by exposure to air.
Imaging under a blue light, and examination of the distribution of fluorescein-conjugated peptides after tail vein injection have been described (Hoffman, R. M. (2005) Nature Reviews Cancer 5, 796-806; Laakkonen, P., Akerman, M. E., Biliran, H., Yang, M., Ferrer, F., Karpanen, T., Hoffman, R. M., & Ruoslahti E. (2004) Proc. Natl. Acad. Sci. USA 101, 9381-6).
The imaging methods are briefly described as follows: A Leica fluorescence stereomicroscope, model LZ12, equipped with a 50-W mercury lamp, was used for high-magnification imaging. Selective excitation of GFP was produced through a D425y60 band-pass filter and 470 DCXR dichroic mirror. Emitted fluorescence was collected through a long-pass filter GG475 (Chroma Technology, Brattleboro, Vt.) on a Hamamatsu C5810 3-chip cooled color charge-coupled device camera (Hamamatsu Photonics Systems, Bridgewater, N.J.). Images were processed for contrast and brightness and analyzed with the use of IMAGE PRO PLUS 3.1 software (Media Cybernetics, Silver Springs, Md.). Images of 1,024×724 pixels were captured directly on an IBM PC or continuously through video output on a high-resolution Sony VCR model SLV-R1000 (Sony, Tokyo). Imaging at lower magnification that visualized the entire animal was carried out in a light box illuminated by blue light fiber optics (Lightools Research, Encinitas, Calif.) and imaged by using the thermoelectrically cooled color charge-coupled device camera, as described above (Yang, M., Baranov, E., Jiang, P., Sun, F-X., Li, X-M., Li, L., Hasegawa, S., Bouvet, M., Al-Tuwaijri, M., Chishima, T., et al (2000) Proc. Natl. Acad. Sci. USA 97, 1206-11).
The mice were perfused through the heart 3 hours after the peptide injection and tissues removed for examination. […]

[2] = test system: PPC1 xenograft tumor; experiment: Peptide overlay assay on frozen tumor sections; format: binding; details: PPC1 xenografts
Experimental: (§1) The mice were perfused through the heart 3 hours after the peptide injection and tissues removed for examination. For fibrin and fibronectin immunostaining, tissues were fixed with 4% paraformaldehyde and stained with biotinylated mouse fibrin(ogen) antiserum (Nordic Immunological Laboratories) or a polyclonal anti-mouse fibronectin (Chemicon), followed by streptavidin Alexa 594 or anti-rabbit Alexa 594 (Molecular Probes), respectively. For peptide overlay, sections of frozen OCT embedded tissue were incubated with 10 μg/ml fluorescein-conjugated peptide for 30 min at room temperature. Tissue fluorescence was quantified using Image-Pro Plus software. At least two images from representative microscopic fields were analyzed from each tissue sample and data from individual mice that received the same treatment (n=2-8) were pooled.

[3] = test system: mouse Lewis lung carcinoma; experiment: Peptide overlay assay on frozen tumor sections; format: binding
Experimental: as §1

[4] = test system: human clinical breast cancers; experiment: Peptide overlay assay on frozen tumor sections; format: binding; details: two clinical breast cancers
Experimental: B16F1 mouse melanoma, Lewis lung carcinoma, C8161 human melanoma, MDA-MB-435 human breast cancer, and PPC-1 human prostate cancer cells (American Type Culture Collection) were maintained in RPMI or DMEM supplemented with 10% FCS. Human tumor cells (1×10^6) were injected into the mammary fat pad or the flank of nude BALB/c nu/nu mice to induce tumors. MMTV PyMT mice were provided by Dr. Robert Oshima (Burnham Institute for Medical Research, La Jolla, Calif.). The MMTV PyMT mice develop breast cancer under the influence of a polyoma middle T antigen driven by the mouse tumor virus promoter (Siegel, P. M., Ryan, E. D., Cardiff, R. D., Muller W. J. (1999) EMBO J., 18, 2149-64). […]
(§2) The mice were perfused through the heart 3 hours after the peptide injection and tissues removed for examination. […] Tissue fluorescence was quantified using Image-Pro Plus software. At least two images from representative microscopic fields were analyzed from each tissue sample and data from individual mice that received the same treatment (n=2-8) were pooled.

[5] = test system: fibrin(ogen); experiment: Co-localization of injected peptide with fibrin staining in tumor sections; format: in vivo, mouse; details: MDA-MB-435 xenograft sections, i.v. injected peptide
Experimental: as §1

[6] = test system: B16F1 tumors; experiment: Homing to B16F1 tumors in wild type, fibrinogen knockout and plasma fibronectin-deficient mice; format: in vivo, mouse
Description: Knockout mice were employed to study the role of fibrin(ogen) and fibronectin in the homing of the CLT peptides to tumors. Fibrinogen knockout mice are viable (Palumbo, J. S., Kombrinck, K. W., Drew, A. F., Grimes, T. S., Kiser, J. H. Jay L. Degen, J. L. & Bugge, T. H. (2000), Blood 96, 3302-3309) and were used as tumor recipients. Complete absence of fibronectin is lethal, but mice that lack plasma fibronectin can be generated by postnatally deleting the fibronectin gene in the liver (Sakai, T., Johnson, K. J., Murozono, M., Sakai, K., Magnuson, M. A., Wieloch, T., Cronberg, T., Isshiki, A., Erickson, H. P., & Fassler R. (2001) Nat. Med. 7, 324-30). The CLT peptides homed to B16F1 tumors grown in wild type C57BL/6 mice (n=10) producing a fibrillar meshwork (CLT1; FIG. 3D). In contrast, only faint, evenly distributed fluorescence was present in tumors (n=4) grown in the fibrinogen knockout mice (which lack the ability to produce fibrin) (FIG. 3E). […] Unlike in the fibrinogen knockout mice, there was no residual peptide binding to the tumors in the plasma fibronectin-deficient mice (FIG. 3H).
B16F1 mouse melanoma, Lewis lung carcinoma, C8161 human melanoma, MDA-MB-435 human breast cancer, and PPC-1 human prostate cancer cells (American Type Culture Collection) were maintained in RPMI or DMEM supplemented with 10% FCS. Human tumor cells (1×10^6) were injected into the mammary fat pad or the flank of nude BALB/c nu/nu mice to induce tumors. MMTV PyMT mice were provided by Dr. Robert Oshima (Burnham Institute for Medical Research, La Jolla, Calif.). […]
as §2

[7] = 500 μg fluorescein-conjugated peptide i.v., 3 h

## CGLIIQKNEC (also: cyclic, ring type not given here, fluorescein conjugate, site not given here) [CLT1, cyclic decapeptide from phage library screened on plasma clots; tested as fluorescein conjugate]
[1]; [7]
  fluorescence in control / healthy organs: not in control organs
  fluorescence in tumors, whole tissues under blue light: intense fluorescence; also recorded: strong fluorescence
[1]; fluorescein-conjugated peptide i.v., 3 h, 400×
  histological distribution of peptide fluorescence within the tumor: distributed in a network pattern
[1]; unlabeled CLT2 in 5 fold excess
  tumor homing / fluorescence on co-injection with unlabeled CLT2: strongly reduced
[2]
  overlay binding: positive
[3]; co-incubation with control peptide
  overlay binding in presence of control peptide: not by a control peptide
[3]; co-incubation with unlabeled CLT1
  overlay binding in presence of unlabeled CLT peptide: inhibited; also recorded: eliminated
[3]; fluorescein-conjugated peptide 10 μg/ml, 30 min
  binding pattern in peptide overlay: produced a fibrillar network
[4]
  overlay binding: positive
[5]
  co-localization of peptide fluorescence with fibrin staining: co-localized; also recorded: overlapping distribution
[6]; plasma fibronectin-deficient mice
  homing to B16F1 tumors: negative
[6]; wild type C57BL/6 mice
  homing to B16F1 tumors: produce a fluorescent meshwork
[6]; wild type littermates of plasma fibronectin-deficient mice
  homing to B16F1 tumors: homes

Reference: patent US9522198B2, “Methods and compositions related to targeting tumors and wounds” (Sanford-Burnham Medical Research Institute, priority 2006, dated 2016)
